Laboratory results published in US11077115B2, “Rorgamma modulators and uses thereof” (Genfit, priority 2017, dated 2021).
One block for each molecule: values may come before it.

Columns and labels:
[1] = molecular target: T1, human RORγt (Homo sapiens, UniProt P51449); assay: IL-17 secretion from EL4 murine lymphoma overexpressing human RORγt; assay type: cell-based; parameters: V5-His (named only through the vector pcDNA3.1D/V5-His-TOPO); expressed in transfected cells; details: IL-17 secretion inhibition in human RORγt-transfected EL4 Tcells, PMA/ionomycin stimulation
T1 sequence (P51449 1-497 isoform P51449-2): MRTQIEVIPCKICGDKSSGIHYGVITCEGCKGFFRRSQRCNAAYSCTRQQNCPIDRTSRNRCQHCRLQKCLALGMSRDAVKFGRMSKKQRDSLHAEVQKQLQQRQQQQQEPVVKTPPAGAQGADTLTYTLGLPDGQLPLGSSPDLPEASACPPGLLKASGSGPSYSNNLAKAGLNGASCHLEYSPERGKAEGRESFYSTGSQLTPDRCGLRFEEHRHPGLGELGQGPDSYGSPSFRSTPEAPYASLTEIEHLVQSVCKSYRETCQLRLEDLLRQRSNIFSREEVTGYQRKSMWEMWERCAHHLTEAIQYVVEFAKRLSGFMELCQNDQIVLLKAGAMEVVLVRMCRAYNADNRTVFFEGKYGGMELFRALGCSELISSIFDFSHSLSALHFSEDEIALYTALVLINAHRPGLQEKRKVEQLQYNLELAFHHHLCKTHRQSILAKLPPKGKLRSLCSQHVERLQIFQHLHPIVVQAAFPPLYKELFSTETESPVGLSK
Description: Murine EL-4 lymphoma cell line overexpressing human RORγt was used in this functional assay to assess compound ability to inhibit IL-17 cytokine secretion.
EL-4 cells are maintained in a standard culture medium RPMI supplemented with 10% fetal calf serum, 1% sodium pyruvate, 1% essential amino acids and 1% antibiotics at 37° C. in a humidified atmosphere of 5% CO2 and 95% air. Culture medium was changed every 2 days. EL4 cells were transfected with a plasmid encoding hRORγt (sequence identical to published sequence NM 001001523). […] Briefly, 1 μg of DNA/1 million cells was served to transfect EL-4 cells. Cell/DNA suspension was transferred into certified cuvette and the electroporation of RORγt plasmid was carried out using appropriate Nucleofector® program.
Cells were seeded in 96 well plates at a density of 150000 cells/well then treated with compounds of this invention at indicated concentrations and incubated for 24 hours at 37° C. in a humidified atmosphere of 5% CO2 and 95% air. EL-4 cells were pretreated with test compounds (RORγ modulators) and stimulated with PMA (10 ng/mL) and ionomycin (1 μM final concentration) in the presence of test compound concentrations for additional 24 h at 37° C. in a humidified atmosphere of 5% CO2 and 95% air. Subsequently, supernatants were collected (after centrifugation at 300 g for 10 minutes) to determine the concentrations of IL-17 by HTRF (CisBio, France) or ELISA (R&D Systems Europe) according to the manufacturer's protocols.

[2] = molecular target: T2, RORγt ligand-binding domain (RORγt-LBD) (Homo sapiens, UniProt P51449); assay: Time-resolved FRET (TR-FRET) RORγt coactivator assay (RIP140 peptide displacement); assay type: biochemical; details: ligand-dependent coactivator-RORγt binding
T2 construct: 20 nM recombinantly expressed RORγ-LBD fused to GST
T2 sequence (P51449 269-508 limits assumed): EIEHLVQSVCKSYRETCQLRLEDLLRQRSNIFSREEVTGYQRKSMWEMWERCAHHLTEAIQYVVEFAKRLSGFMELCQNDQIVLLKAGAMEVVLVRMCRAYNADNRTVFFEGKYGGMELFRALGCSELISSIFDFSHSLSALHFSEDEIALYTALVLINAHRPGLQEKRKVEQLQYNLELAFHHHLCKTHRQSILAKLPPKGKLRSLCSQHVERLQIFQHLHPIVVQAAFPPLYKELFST
Method in brief: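 GST-tagged RORγt-LBD (20 nM) with 30 nM biotinylated RIP140 peptide, 1 nM streptavidin-terbium and 20 nM d2-anti-GST in CHAPS buffer with DTT, EDTA, BSA; 1% DMSO. Compounds 0.3 nM–30 μM, 2 h dark, room temperature. Coactivator displacement lowers TR-FRET signal; IC50 (μM) and Emax (%) derived.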

[3] = molecular target: T1, human RORγt; assay: RORE Luciferase/RORγt transactivation assay (IL-17 promoter luciferase reporter in COS-7 cells); assay type: cell-based; parameters: V5-His (named only through the vector pcDNA3.1D/V5-His-TOPO); expressed in transfected cells; host or cells: COS-7 (monkey kidney); details: RORγt activity inhibition, luciferase activity in transfected COS-7 cells, 20 h
Method in brief: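 COS-7 cells co-transfected with human RORγt and luciferase reporter driven by 4.3 kb IL-17 promoter with CNS enhancer, seeded in serum-free, phenol red-free DMEM. Compounds added at 0.3% DMSO final; luciferase read by Steady-Glo luminescence. IC50 (μM) and Emax (%) reported.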

[4] = tested on: multiple sclerosis model; details: administered by injection; cited from earlier work
[5] = tested on: psoriasis model; details: administered by injection; cited from earlier work
[6] = tested on: patients with moderate to severe psoriasis; details: cited from earlier work
[7] = relative to placebo, patients with moderate to severe psoriasis

IC50 [1]: 100 to 1000 nM
IC50 [2]: < 1000 nM
IC50 [3]: < 100 nM
Compound: Cc1ccc(C(NC(=O)C2(c3ccc(N4CCS(=O)(=O)CC4)c(C)n3)CC2)c2ccc(C)o2)c(C)c1 (stereo not drawn) [Cpd. 71, N-[(2,4-dimethylphenyl)(5-methylfuran-2-yl)methyl]-1-[5-(1,1-dioxo-1-thiomorpholin-4-yl)-6-methylpyridin-2-yl]cyclopropane-1-carboxamide]

Compound: CC(=O)Nc1nc(C)c(S(=O)(=O)Nc2ccc(C(O)(C(F)(F)F)C(F)(F)F)cc2)s1 [SR1001]
efficacy in multiple sclerosis model [4]: efficacious

Compound: Cc1ccc([C@@H](NC(=O)Cc2ccc3oc([C@@H](O)c4c(C)noc4C)cc3c2)c2ccccc2)c(C)c1 [TMP778]
efficacy in psoriasis model [5]: efficacious

Compound: CCS(=O)(=O)c1ccc(CNC(=O)c2cnc3c(c2)CN(C[C@H]2CC[C@H](C(F)(F)F)CC2)[C@H]3C(C)C)nc1 [VTP-43742]
reduction in the Psoriasis Area Severity Index (PASI) score relative to placebo ([6]; 350 mg dose group): 24%
placebo-adjusted PASI score reduction ([6]; 700 mg dose group): 30%
Psoriasis Area Severity Index (PASI) score [6, 7]: reduced
plasma IL-17 levels [6, 7]: reduced
